Experimental data as given in BigSolDB 2.1.

## O=c1c(-c2ccc(O)cc2)coc2cc(O)cc(O)c12
In acetone, 288.2 K
  solubility (mole fraction): 0.00477
In acetone, 293.2 K
  solubility (mole fraction): 0.00526
In acetone, 298.2 K
  solubility (mole fraction): 0.00607
In acetone, 303.2 K
  solubility (mole fraction): 0.007
In acetone, 308.2 K
  solubility (mole fraction): 0.00754
In acetone, 313.2 K
  solubility (mole fraction): 0.00805
In acetone, 318.2 K
  solubility (mole fraction): 0.00856
In acetone, 323.2 K
  solubility (mole fraction): 0.00879
In acetone, 328.2 K
  solubility (mole fraction): 0.0089
In chloroform, 288.2 K
  solubility (mole fraction): 2.41e-06
In chloroform, 293.2 K
  solubility (mole fraction): 2.82e-06
In chloroform, 298.2 K
  solubility (mole fraction): 3.22e-06
In chloroform, 303.2 K
  solubility (mole fraction): 3.6e-06
In chloroform, 308.2 K
  solubility (mole fraction): 3.99e-06
In chloroform, 313.2 K
  solubility (mole fraction): 4.36e-06
In chloroform, 318.2 K
  solubility (mole fraction): 4.51e-06
In chloroform, 323.2 K
  solubility (mole fraction): 4.7e-06
In chloroform, 328.2 K
  solubility (mole fraction): 4.74e-06
In ethyl acetate, 288.2 K
  solubility (mole fraction): 0.00183
In ethyl acetate, 293.2 K
  solubility (mole fraction): 0.0022
In ethyl acetate, 298.2 K
  solubility (mole fraction): 0.00241
In ethyl acetate, 303.2 K
  solubility (mole fraction): 0.00273
In ethyl acetate, 308.2 K
  solubility (mole fraction): 0.00335
In ethyl acetate, 313.2 K
  solubility (mole fraction): 0.00367
In ethyl acetate, 318.2 K
  solubility (mole fraction): 0.00413
In ethyl acetate, 323.2 K
  solubility (mole fraction): 0.00471
In ethyl acetate, 328.2 K
  solubility (mole fraction): 0.00539
In methanol, 288.2 K
  solubility (mole fraction): 0.000935
In methanol, 293.2 K
  solubility (mole fraction): 0.00127
In methanol, 298.2 K
  solubility (mole fraction): 0.00145
In methanol, 303.2 K
  solubility (mole fraction): 0.00163
In methanol, 308.2 K
  solubility (mole fraction): 0.00192
In methanol, 313.2 K
  solubility (mole fraction): 0.00212
In methanol, 318.2 K
  solubility (mole fraction): 0.00266
In methanol, 323.2 K
  solubility (mole fraction): 0.00323
In methanol, 328.2 K
  solubility (mole fraction): 0.00372
In n-hexane, 288.2 K
  solubility (mole fraction): 6.96e-06
In n-hexane, 293.2 K
  solubility (mole fraction): 8.12e-06
In n-hexane, 298.2 K
  solubility (mole fraction): 9e-06
In n-hexane, 303.2 K
  solubility (mole fraction): 1.01e-05
In n-hexane, 308.2 K
  solubility (mole fraction): 1.09e-05
In n-hexane, 313.2 K
  solubility (mole fraction): 1.14e-05
In n-hexane, 318.2 K
  solubility (mole fraction): 1.24e-05
In n-hexane, 323.2 K
  solubility (mole fraction): 1.3e-05
In n-hexane, 328.2 K
  solubility (mole fraction): 1.41e-05
In water, 288.2 K
  solubility (mole fraction): 4.72e-08
In water, 293.2 K
  solubility (mole fraction): 6.95e-08
In water, 298.2 K
  solubility (mole fraction): 8.46e-08
In water, 303.2 K
  solubility (mole fraction): 1.05e-07
In water, 308.2 K
  solubility (mole fraction): 1.25e-07
In water, 313.2 K
  solubility (mole fraction): 1.67e-07
In water, 318.2 K
  solubility (mole fraction): 1.99e-07
In water, 323.2 K
  solubility (mole fraction): 2.7e-07
In water, 328.2 K
  solubility (mole fraction): 3.68e-07
